In article PMC6934184, “Selective DNA-PKcs inhibition extends the therapeutic index of localized radiotherapy and chemotherapy” (The Journal of Clinical Investigation, 2019):

Target: T1, RIPK3 (Homo sapiens, UniProt Q9Y572)
T1 construct: purchased Thermo Fisher Scientific (Life Technologies) SelectScreen
Experiment: SelectScreen LanthaScreen
Format: binding
Conditions: read-out: % displacement
How it was run: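 Percent values come from Thermo SelectScreen profiling of NU5455, combining activity and binding assays. CSF1R was run in Z'LYTE format at Km app ATP, and CAMK1 in Adapta format with ATP listed at 10.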

T1 sequence (Q9Y572 whole entry): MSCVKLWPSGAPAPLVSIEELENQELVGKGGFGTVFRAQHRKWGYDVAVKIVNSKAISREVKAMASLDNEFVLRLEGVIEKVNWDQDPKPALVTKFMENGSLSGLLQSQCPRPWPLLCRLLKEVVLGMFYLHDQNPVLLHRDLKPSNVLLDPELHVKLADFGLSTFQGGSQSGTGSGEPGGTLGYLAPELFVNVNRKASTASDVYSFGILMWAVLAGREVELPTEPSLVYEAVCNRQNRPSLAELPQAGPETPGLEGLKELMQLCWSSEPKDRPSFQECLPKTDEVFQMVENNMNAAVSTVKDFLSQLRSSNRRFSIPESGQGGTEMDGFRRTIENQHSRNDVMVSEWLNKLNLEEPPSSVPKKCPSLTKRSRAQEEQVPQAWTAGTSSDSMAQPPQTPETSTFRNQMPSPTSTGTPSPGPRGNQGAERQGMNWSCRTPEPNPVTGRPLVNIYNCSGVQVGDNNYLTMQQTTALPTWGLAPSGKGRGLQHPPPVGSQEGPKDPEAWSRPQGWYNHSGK

**Q.** How did the inhibition at 1 µM turn out when `CN(C(=O)CN1CCOCC1)c1ccc2sc3c(-c4cccc5c(=O)cc(N6CC7CCC(C6)O7)oc45)cccc3c2c1` [NU5455] was run?
**A.** -2.3%
